Measurements taken from ChEMBL document CHEMBL3352805, “Structure and Stereochemical Determination of Hypogeamicins from a Cave-Derived Actinomycete” (J Nat Prod, 2014).
Values after ≈ are worked out from the molar mass of the structure shown. Active and inactive are the calls of the source. The calls are words filed in the database; no cut-off is given here.

Assays:
[1] = (§1) Cytotoxicity against human TCT1 cells after 48 hrs by calcein-AM dye based fluorescence assay; type: functional, cell-based; conditions: TCT1, 48 h
TCT1 = test: as §1; type: functional, cell-based
Bacillus subtilis = test: Antibacterial activity against Bacillus subtilis; type: functional

Compound | IC50 [1] [µM] | Cytotoxicity (TCT1) | MIC (Bacillus subtilis) | Activity (TCT1)
COC(=O)CC1CC2(SC34CC(CC(=O)OC)OC(C)C3(O)C(=O)c3c(O)cccc3C4=O)C(=O)c3cccc(O)c3C(=O)C2(O)C(C)O1 (stereo not drawn) | 6.4 | – | – | –
CCC[C@H]1O[C@H](CC(N)=O)C[C@]2(S[C@]34C[C@@H](CC(N)=O)O[C@H](CCC)[C@]3(O)C(=O)c3c(O)cc(OC)cc3C4=O)C(=O)c3cc(OC)cc(O)c3C(=O)[C@@]12O | – | Active | inactive | –
CCC[C@H]1O[C@H](CC(N)=O)C[C@]23O[C@]12C(=O)c1c(O)cc(OC)cc1C3=O | – | – | 7 µg/mL (≈ 18.6 µM) | inactive
GENTAMICIN | – | – | 0.125 µg/mL | –
CC[C@H]1OC(=O)[C@H](C)[C@@H](O[C@H]2C[C@@](C)(OC)[C@@H](O)[C@H](C)O2)[C@H](C)[C@@H](O[C@@H]2O[C@H](C)C[C@H](N(C)C)[C@H]2O)[C@](C)(O)C[C@@H](C)C(=O)[C@H](C)[C@@H](O)[C@]1(C)O [ERYTHROMYCIN] | – | – | 0.125 µg/mL (≈ 0.17 µM) | –
CCC[C@H]1O[C@H](C(O)C(N)=O)C[C@]23O[C@]12C(=O)c1c(O)cc(OC)cc1C3=O (stereo partly drawn) | – | – | 7 µg/mL (≈ 17.9 µM) | inactive
COC(=O)CC1CC2(SC34CC(CCO)OC(C)C3(O)C(=O)c3c(O)cccc3C4=O)C(=O)c3cccc(O)c3C(=O)C2(O)C(C)O1 (stereo not drawn) | 6.4 | – | – | –
CC(=O)O[C@H]1C(=O)[C@@]2(C)[C@H]([C@H](OC(=O)c3ccccc3)[C@]3(O)C[C@H](OC(=O)[C@H](O)[C@@H](NC(=O)c4ccccc4)c4ccccc4)C(C)=C1C3(C)C)[C@]1(OC(C)=O)CO[C@@H]1C[C@@H]2O [PACLITAXEL] | 0.0025 | – | – | –
CCC[C@H]1O[C@H](CC(N)=O)C[C@]2(O)C(=O)c3cc(OC)cc(O)c3C(=O)[C@@]12O | – | – | 28 µg/mL (≈ 71.2 µM) | inactive
